Data as given in patent publication US20080182811A1, “METABOTROPIC GLUTAMATE RECEPTOR ACTIVATOR” (Ajinomoto Co., Inc., priority 2005, published 2008).

Tests used:
Format in all cases: cell-based
[1] = target: T1, group I metabotropic glutamate receptor subtype 5 (mGluR5) (Homo sapiens, UniProt P41594); experiment: Electrophysiological measurement of response current in Xenopus oocytes injected with mGluR5 cRNA; conditions: aspartic acid 300 μM, valine 3 mM; for mGluR5 (receptor activation by amino acid): amino acid alone, others 10 mM, oocytes injected with mGluR5 cRNA; for mGluR5 (receptor activation by amino acid) / effect of amino acid (response current value) with nucleic acid and cation vs amino acid alone: cysteine 1 mM; for effect of amino acid (response current value) with nucleic acid and cation vs amino acid alone: coexistence with both inosinic acid (1 mM) and calcium ion (10 mM), FIG. 4; for effect of amino acid (response current value) with nucleic acid and cation vs amino acid alone / effect of amino acid (response current value) with cation vs amino acid alone / effect of amino acid (response current value) with nucleic acid vs amino acid alone: glutamic acid 3 μM; for effect of amino acid (response current value) with cation vs amino acid alone: coexistence with calcium ion (10 mM), FIG. 3; for effect of amino acid (response current value) with cation vs amino acid alone / effect of amino acid (response current value) with nucleic acid vs amino acid alone: cysteine 3 mM; for effect of amino acid (response current value) with nucleic acid vs amino acid alone: coexistence with inosinic acid (1 mM), FIG. 2
T1 construct: expressed in transfected cells; host or cells: Xenopus oocytes injected with cRNA
Source text: A metabotropic glutamate receptor subtype 5 (mGluR5) was used as a group I metabotropic glutamate receptor. A metabotropic glutamate receptor subtype 3 (mGluR3) was used as a representative of group II metabotropic glutamate receptors. A metabotropic glutamate receptor subtype 8 (mGluR8) was used as a representative of group III metabotropic glutamate receptors. The genes of the three metabotropic glutamate receptors, G-protein-gated inward rectifier K channel 1 (GIRK1), and G-protein-gated inward rectifier K channel 4 (GIRK4) were prepared as follows.
PCR was performed using a cDNA derived from the human brain (manufactured by Clontech) as a material and using Pfu ultra DNA Polymerase (manufactured by Stratagene) under the following conditions. After a 3-minute reaction at 94° C., a cycle of 94° C./30 seconds, 55° C./30 seconds, and 72° C./2 minutes was repeated 35 times, followed by a 7-minute reaction at 72° C. Amplified PCR products were subjected to agarose gel electrophoresis, stained with a DNA staining reagent and detected by UV irradiation. The lengths of the PCR products were confirmed by comparing the lengths with a DNA marker having a known size, which was electrophoresed simultaneously with the PCR products. A plasmid vector pBR322 was cleaved with a restriction enzyme EcoRV (manufactured by TAKARA BIO INC.). The respective gene fragments amplified by PCR were ligated to the cleaved site using Ligation Kit (manufactured by Promega). Escherichia coli DH5a strain was transformed with the reaction solution, and transformants carrying plasmids where the PCR products were cloned were selected. The PCR amplified products were identified by DNA sequence analysis. The recombinant plasmids were used as a template to prepare cRNA of each of the receptor genes using a cRNA preparation kit (Ambion, Inc.).
Special grade reagents of twenty-three L-amino acids including alanine, arginine, asparagine, aspartic acid, cysteine, glutamine, glutamic acid, glycine, histidine, isoleucine, leucine, lysine, methionine, phenylalanine, proline, serine, threonine, tryptophan, tyrosine, valine, ornithine, taurine, and hydroxyproline were used. Special grade reagents of inosine and calcium chloride were used. Glutamine and cysteine were prepared every time before use, and the other reagents were prepared and stored at −20° C. A solution for dissolving amino acids, nucleic acids, and cations, a solution for preparing Xenopus oocytes, and a solution for culturing Xenopus oocytes have the following composition. NaCl 96 mM/KCl 2 mM/MgCl2 1 mM/CaCl2 1.8 mM/Hepes 5 mM/pH 7.2.
Ca ion concentration-dependent Cl ion current measurement method using a Xenopus oocyte expression system was used as a method of measuring the signaling via a metabotropic glutamate receptor. The abdomen of a Xenopus were incised, and the egg mass was removed and treated with a 1% collagenase solution at 20° C. for 2 hours, to thereby obtain individual oocytes. To one oocyte was introduced 50 nl of 1 μg/μl receptor cRNA or 50 nl of distilled water using a microcapillary, followed by culture at 18° C. for 2 or 3 days. This culture was performed using a solution obtained by adding 2 mM pyruvic acid, 10 U/ml penicillin, and 10 μg/ml streptomycin to the solution shown in Example 2. After completion of culture, a ligand solution was added to oocytes injected with the cRNA and oocytes injected with distilled water, respectively. Electrophysiological measurement was performed using an amplifier Geneclamp 500 (manufactured by Axon Instruments, Inc.) and recording software AxoScope 9.0 (manufactured by Axon Instruments, Inc.). The oocytes were subjected to membrane potential fixation at −70 mV by a two-electrode membrane potential fixation method, and intracellular currents via Ca ion concentration-dependent Cl ion were measured. The maximal value of the intracellular currents was defined as a response current value.

[2] = target: T2, group II metabotropic glutamate receptor subtype 3 (mGluR3) (Homo sapiens, UniProt Q14832); experiment: Electrophysiological measurement of response current in Xenopus oocytes injected with mGluR3, GIRK1 and GIRK4 cRNAs; conditions: for mgluR3 (receptor activation by amino acid): amino acid alone, 1 mM, oocytes injected with mGluR3, GIRK1, GIRK4 cRNAs; for effect of amino acid (response current value) with cation vs amino acid alone: coexistence with calcium ion (10 mM), FIG. 7; for effect of amino acid (response current value) with cation vs amino acid alone / effect of amino acid (response current value) with nucleic acid and cation vs amino acid alone / effect of amino acid (response current value) with nucleic acid vs amino acid alone: glutamic acid 3 μM, aspartic acid 300 μM, leucine 1 mM; for effect of amino acid (response current value) with cation vs amino acid alone / effect of amino acid (response current value) with nucleic acid and cation vs amino acid alone: cysteine 1 mM; for effect of amino acid (response current value) with nucleic acid and cation vs amino acid alone: coexistence with inosinic acid (1 mM) and calcium ion (10 mM), FIG. 8; for effect of amino acid (response current value) with nucleic acid vs amino acid alone: coexistence with inosinic acid (1 mM), valine 1 mM, FIG. 6
T2 construct: expressed in transfected cells; host or cells: Xenopus oocytes injected with cRNAs of mGluR3, GIRK1 and GIRK4

[3] = target: T3, group III metabotropic glutamate receptor subtype 8 (mGluR8) (Homo sapiens, UniProt O00222); experiment: Electrophysiological measurement of response current in Xenopus oocytes injected with mGluR8, GIRK1 and GIRK4 cRNAs; conditions: cysteine 1 mM; for mgluR8 (receptor activation by amino acid): amino acid alone, aspartic acid 300 μM, valine 3 mM, others 10 mM, oocytes injected with mGluR8, GIRK1, GIRK4 cRNAs; for effect of amino acid (response current value) with nucleic acid and cation vs amino acid alone: coexistence with both inosinic acid (1 mM) and calcium ion (10 mM), FIG. 12; for effect of amino acid (response current value) with nucleic acid and cation vs amino acid alone / effect of amino acid (response current value) with cation vs amino acid alone / effect of amino acid (response current value) with nucleic acid vs amino acid alone: glutamic acid 3 μM; for effect of amino acid (response current value) with cation vs amino acid alone: coexistence with calcium ion (10 mM), FIG. 11; for effect of amino acid (response current value) with nucleic acid vs amino acid alone: coexistence with inosinic acid (1 mM), FIG. 10
T3 construct: expressed in transfected cells; host or cells: Xenopus oocytes injected with cRNAs of mGluR8, GIRK1 and GIRK4
T3 sequence (O00222 34-908): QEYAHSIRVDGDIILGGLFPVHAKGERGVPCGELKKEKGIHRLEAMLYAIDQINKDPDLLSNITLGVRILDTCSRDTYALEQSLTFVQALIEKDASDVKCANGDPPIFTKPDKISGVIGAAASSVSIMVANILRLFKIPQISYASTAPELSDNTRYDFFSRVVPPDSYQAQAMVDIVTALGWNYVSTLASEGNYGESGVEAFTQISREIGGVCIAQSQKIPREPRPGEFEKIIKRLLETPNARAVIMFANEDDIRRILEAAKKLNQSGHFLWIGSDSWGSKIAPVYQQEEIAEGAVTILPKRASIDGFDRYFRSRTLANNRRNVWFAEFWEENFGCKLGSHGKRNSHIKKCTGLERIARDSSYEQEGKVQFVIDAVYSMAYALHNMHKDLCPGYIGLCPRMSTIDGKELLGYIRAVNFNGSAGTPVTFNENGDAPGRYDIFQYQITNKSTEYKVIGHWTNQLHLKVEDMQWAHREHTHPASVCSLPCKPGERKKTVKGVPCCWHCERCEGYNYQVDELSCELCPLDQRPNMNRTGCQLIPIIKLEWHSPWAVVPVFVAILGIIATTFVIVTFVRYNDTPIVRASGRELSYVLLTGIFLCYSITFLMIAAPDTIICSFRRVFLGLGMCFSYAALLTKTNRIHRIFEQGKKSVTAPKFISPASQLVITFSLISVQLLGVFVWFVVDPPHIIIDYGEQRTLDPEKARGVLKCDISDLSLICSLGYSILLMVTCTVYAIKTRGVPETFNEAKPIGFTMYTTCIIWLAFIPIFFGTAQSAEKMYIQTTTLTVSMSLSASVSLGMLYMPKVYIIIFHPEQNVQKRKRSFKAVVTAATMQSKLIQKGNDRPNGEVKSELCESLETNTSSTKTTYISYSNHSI

T2 sequence (Q14832 23-879): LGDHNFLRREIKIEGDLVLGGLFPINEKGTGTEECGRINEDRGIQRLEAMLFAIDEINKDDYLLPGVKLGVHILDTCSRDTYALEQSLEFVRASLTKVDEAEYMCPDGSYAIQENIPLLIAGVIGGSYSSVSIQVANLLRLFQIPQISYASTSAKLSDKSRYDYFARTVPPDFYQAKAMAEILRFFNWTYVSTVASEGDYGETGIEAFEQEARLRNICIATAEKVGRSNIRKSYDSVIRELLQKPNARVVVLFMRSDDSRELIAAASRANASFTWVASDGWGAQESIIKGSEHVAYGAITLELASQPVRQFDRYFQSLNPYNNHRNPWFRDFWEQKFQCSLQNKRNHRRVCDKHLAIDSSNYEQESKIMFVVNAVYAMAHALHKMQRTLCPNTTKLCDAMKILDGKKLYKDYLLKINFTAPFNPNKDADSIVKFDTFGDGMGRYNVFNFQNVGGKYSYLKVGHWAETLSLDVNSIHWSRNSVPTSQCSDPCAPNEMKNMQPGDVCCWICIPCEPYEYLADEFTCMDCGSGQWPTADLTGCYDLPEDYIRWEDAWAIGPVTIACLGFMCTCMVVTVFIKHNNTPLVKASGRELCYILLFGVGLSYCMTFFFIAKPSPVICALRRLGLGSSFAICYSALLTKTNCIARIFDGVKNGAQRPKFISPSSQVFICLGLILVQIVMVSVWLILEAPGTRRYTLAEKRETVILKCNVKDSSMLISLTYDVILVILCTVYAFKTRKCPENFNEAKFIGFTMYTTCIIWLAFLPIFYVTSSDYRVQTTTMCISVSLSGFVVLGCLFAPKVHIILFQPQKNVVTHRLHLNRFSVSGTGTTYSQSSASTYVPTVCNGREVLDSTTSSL
T1 sequence (P41594 21-1180 isoform P41594-2 limits assumed): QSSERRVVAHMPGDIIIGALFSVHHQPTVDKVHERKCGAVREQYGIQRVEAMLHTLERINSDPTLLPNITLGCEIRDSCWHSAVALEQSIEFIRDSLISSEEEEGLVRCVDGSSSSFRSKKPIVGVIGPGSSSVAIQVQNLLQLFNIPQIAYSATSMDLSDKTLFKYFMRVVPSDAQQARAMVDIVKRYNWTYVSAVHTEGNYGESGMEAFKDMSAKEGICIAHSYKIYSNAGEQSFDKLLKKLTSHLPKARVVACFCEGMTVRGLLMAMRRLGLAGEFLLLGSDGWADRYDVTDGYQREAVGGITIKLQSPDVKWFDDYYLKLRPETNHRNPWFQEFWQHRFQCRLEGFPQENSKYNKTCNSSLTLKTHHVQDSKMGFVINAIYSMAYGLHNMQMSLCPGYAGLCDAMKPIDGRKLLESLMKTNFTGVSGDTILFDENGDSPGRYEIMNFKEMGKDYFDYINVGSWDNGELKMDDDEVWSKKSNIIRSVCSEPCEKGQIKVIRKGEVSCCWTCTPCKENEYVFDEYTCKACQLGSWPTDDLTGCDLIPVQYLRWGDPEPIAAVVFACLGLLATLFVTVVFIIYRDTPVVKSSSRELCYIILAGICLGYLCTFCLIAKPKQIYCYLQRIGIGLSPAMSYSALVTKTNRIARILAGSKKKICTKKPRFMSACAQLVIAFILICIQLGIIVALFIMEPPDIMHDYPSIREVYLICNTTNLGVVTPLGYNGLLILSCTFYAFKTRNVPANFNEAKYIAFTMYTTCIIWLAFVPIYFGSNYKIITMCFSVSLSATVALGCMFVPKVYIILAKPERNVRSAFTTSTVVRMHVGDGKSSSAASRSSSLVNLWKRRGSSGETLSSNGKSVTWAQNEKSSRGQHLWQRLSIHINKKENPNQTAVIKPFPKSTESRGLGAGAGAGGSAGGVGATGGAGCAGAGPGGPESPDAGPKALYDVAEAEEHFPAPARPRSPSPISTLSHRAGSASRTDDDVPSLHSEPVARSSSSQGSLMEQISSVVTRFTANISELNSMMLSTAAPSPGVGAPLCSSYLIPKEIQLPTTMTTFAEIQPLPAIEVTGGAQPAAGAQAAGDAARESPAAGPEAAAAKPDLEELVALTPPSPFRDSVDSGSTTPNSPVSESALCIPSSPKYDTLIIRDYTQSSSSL

SMILES	mGluR5 (receptor activation by amino acid) [1]	effect of amino acid (response current value) with nucleic acid and cation vs amino acid alone [1]	effect of amino acid (response current value) with cation vs amino acid alone [1]	effect of amino acid (response current value) with nucleic acid vs amino acid alone [1]	mgluR3 (receptor activation by amino acid) [2]	effect of amino acid (response current value) with cation vs amino acid alone [2]	effect of amino acid (response current value) with nucleic acid and cation vs amino acid alone [2]	mgluR8 (receptor activation by amino acid) [3]	effect of amino acid (response current value) with nucleic acid and cation vs amino acid alone [3]	effect of amino acid (response current value) with cation vs amino acid alone [3]	effect of amino acid (response current value) with nucleic acid vs amino acid alone [3]	effect of amino acid (response current value) with nucleic acid vs amino acid alone [2]	other results
N[C@@H](CS)C(=O)O [Cysteine, cysteine]	Activated	enhanced	enhanced	enhanced	Activated	enhanced	enhanced	Activated	enhanced	enhanced	enhanced		mGluR5 (receptor activation by amino acid) ([1]; listed as cysteine): effects of enhancing; mgluR3 (receptor activation by amino acid) ([2]; listed as cysteine): effects of enhancing the activation; mgluR8 (receptor activation by amino acid) ([3]; listed as cysteine): effects of activating
N[C@@H](CCC(=O)O)C(=O)O [Glutamic acid, glutamic acid, reference compound]	Activated	enhanced	enhanced	enhanced	Activated	enhanced	enhanced	Activated	enhanced	enhanced	enhanced	enhanced	mGluR5 (receptor activation by amino acid) ([1]; listed as glutamic acid): effects of enhancing; mgluR3 (receptor activation by amino acid) ([2]; listed as glutamic acid): effects of enhancing the activation; mgluR8 (receptor activation by amino acid) ([3]; listed as glutamic acid): effects of activating
CC(C)[C@H](N)C(=O)O [Valine, valine]	Activated	enhanced	enhanced	enhanced	Activated							enhanced	mGluR5 (receptor activation by amino acid) ([1]; listed as valine): effects of enhancing; mgluR3 (receptor activation by amino acid) ([2]; listed as valine): effects of enhancing the activation
N[C@@H](CC(=O)O)C(=O)O [Aspartic acid, aspartic acid]	Activated	enhanced	enhanced	enhanced	Activated	enhanced	enhanced					enhanced	mGluR5 (receptor activation by amino acid) ([1]; listed as aspartic acid): effects of enhancing; mgluR3 (receptor activation by amino acid) ([2]; listed as aspartic acid): effects of enhancing the activation
